Reference: paper PMC4074212, “Tetra- and Pentacyclic Triterpene Acids from the Ancient Anti-inflammatory Remedy Frankincense as Inhibitors of Microsomal Prostaglandin E2 Synthase-1” (Journal of Natural Products, 2014)
“Also recorded” adds a separate entry of the source.

Columns and labels:
mPGES-1 = molecular target: T1, mPGES-1 (Homo sapiens, UniProt O14684); test: cell-free mPGES-1 activity assay (microsomes of IL-1β-stimulated A549 cells, PGE2 formation from PGH2); format: biochemical; details: for inhibition of mPGES-1 activity (in words): tested at / up to 10 μM
T1 construct: using microsomes of IL-1β-stimulated A549 cells as enzyme source; endogenous in cells; host or cells: A549 cells, IL-1β-induced, microsomal fraction
T1 sequence (O14684 1-152): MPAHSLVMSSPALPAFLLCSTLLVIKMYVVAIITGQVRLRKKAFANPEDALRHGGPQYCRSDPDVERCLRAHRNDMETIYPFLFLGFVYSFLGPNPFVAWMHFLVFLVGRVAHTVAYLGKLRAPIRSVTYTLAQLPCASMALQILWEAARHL

COX enzymes = test system: COX enzymes; set-up: method as in PMID 17945191, PMID 20188172, PMID 24354175; details: cited from earlier work
[1] = test system: phorbol ester-induced ear inflammation; set-up: method as in PMID 16621377; details: applied topically, mice; cited from earlier work

CC(C)=CCC[C@H](C(=O)O)[C@@H]1CC[C@]2(C)C3=C(CC[C@@]12C)[C@@]1(C)CC[C@@H](O)C(C)(C)[C@@H]1CC3 [Compound 5, 3-α-hydroxy-8,24-dienetirucallic acid]
inhibition at 10 µM (mPGES-1; at 10 μM): 96%

CC(=O)O[C@@H]1CC[C@]2(C)C3=C(CC[C@H]2C1(C)C)[C@@]1(C)CC[C@@H]([C@H](CCC=C(C)C)C(=O)O)[C@]1(C)CC3 [Compound 6, 3α-acetoxy-8,24-dienetirucallic acid]
concentration range of COX enzyme inhibition (COX enzymes): two-digit micromolar range

C=C(C)[C@@H]1CC[C@]2(C)[C@H](CC=C3[C@@H]4[C@@H](C)[C@H](C)CC[C@]4(C)CC[C@]32C)[C@@]1(C)CCC(=O)O [Compound 11, roburic acid]
inhibition of mPGES-1 activity (in words) (mPGES-1): failed to significantly inhibit; also recorded: not active
concentration range of COX enzyme inhibition (COX enzymes): two-digit micromolar range

CC(C)[C@@H]1CC[C@]2(C)[C@H](CC=C3[C@@H]4[C@@H](C)[C@H](C)CC[C@]4(C)CC[C@]32C)[C@@]1(C)CCC(=O)O [Compound 12, 4,(23)-dihydroroburic acid]
inhibition of mPGES-1 activity (in words) (mPGES-1): failed to significantly inhibit; also recorded: not active

CC(C)[C@@H]1CC[C@]2(C)[C@H](CC=C3[C@@H]4CC(C)(C)CC[C@]4(C)CC[C@]32C)[C@@]1(C)CCC(=O)O [Compound 14, 4,(23)-dihydronyctanthic acid]
inhibition of mPGES-1 activity (in words) (mPGES-1): failed to significantly inhibit; also recorded: inactive

C=C(C)[C@@H]1CC[C@]2(C)CC[C@]3(C)[C@H](CC[C@@H]4[C@@]5(C)CC[C@H](O)[C@](C)(C(=O)O)[C@@H]5CC[C@]43C)[C@@H]12 [Compound 15, Lupeolic acid]
inhibition of phorbol ester-induced ear inflammation [1]: inhibited

C=C(C)[C@@H]1CC[C@]2(C)CC[C@]3(C)[C@H](CC[C@@H]4[C@@]5(C)CC[C@H](OC(C)=O)[C@](C)(C(=O)O)[C@@H]5CC[C@]43C)[C@@H]12 [Compound 16, 3-O-acetyllupeolic acid]
inhibition of phorbol ester-induced ear inflammation [1]: inhibited
